Source: US20260184663A1, “INDENE COMPOUNDS, PHARMACEUTICAL COMPOSITIONS THEREOF, AND THEIR THERAPEUTIC APPLICATIONS” (NucMito Pharmaceuticals co. Ltd., priority 2022, published 2026)

Legend:
Format in all cases: cell-based
[1] = system: A549 (lung adenocarcinoma); assay: Antiproliferative activity (CCK-8 cell viability), A549; conditions: Homo sapiens, 72 h; for inhibition at 3.3 µM: Compound concentration: 3.3 μM; for inhibition at 3.3 µM / inhibition at 10 µM: read-out: Antiproliferative activity in cancerous cells, A549 (inhibition of cell growth); for inhibition at 10 µM: Compound concentration: 10 μM
Procedure, shortened: (§1)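 Cells were seeded at 2,000-5,000/well (HeLa in MEM, HepG2 and SW480 in DMEM, A549 in F-12K, all with 10% FBS) and treated with compound at 3.3, 10 or 30 μM for 72 h at 37° C. CCK-8 was added for 4 h, absorbance was read at 450 nm, and viability was expressed relative to DMSO-treated wells.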

[2] = system: B16F10 (malignant melanoma); assay: Antiproliferative activity (CCK-8 cell viability), B16F10; conditions: Mus musculus, 72 h, read-out: Antiproliferative activity in cancerous cells, B16F10 (inhibition of cell growth); for inhibition at 3.3 µM: B16-F10, Compound concentration: 3.3 μM; for inhibition at 10 µM: B16-F10, Compound concentration: 10 μM
Procedure, shortened: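 Attached B16F10 cells in 96-well plates were incubated with compound at 37° C for 72 h, followed by 10 μL CCK-8 reagent per well and a further 4 h incubation. A multi-well plate reader measured absorbance at 450 nm. Percent viability across replicates was calculated against DMSO vehicle-treated cells.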

HepG2 (liver cancer) = assay: Antiproliferative activity (CCK-8 cell viability), HepG2; conditions: Homo sapiens, 72 h, read-out: Antiproliferative activity in cancerous cells, HepG2 (inhibition of cell growth); for inhibition at 3.3 µM: Compound concentration: 3.3 μM; for inhibition at 10 µM: Compound concentration: 10 μM
Procedure, shortened: as §1

HeLa (cervical cancer) = assay: Antiproliferative activity (CCK-8 cell viability), HeLa; conditions: Homo sapiens, 72 h, read-out: Antiproliferative activity in cancerous cells, HELA (inhibition of cell growth); for inhibition at 3.3 µM: Compound concentration: 3.3 μM; for inhibition at 10 µM: Compound concentration: 10 μM
Procedure, shortened: as §1

[3] = system: A431 (epidermoid carcinoma); assay: Antiproliferative activity (CCK-8 cell viability), A431; conditions: Homo sapiens, 72 h, read-out: Antiproliferative activity in cancerous cells, A431 (inhibition of cell growth); for inhibition at 3.3 µM: A-431, Compound concentration: 3.3 μM; for inhibition at 10 µM: A-431, Compound concentration: 10 μM
Procedure, shortened: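 Cell viability of compound-treated A431 cells was measured with a Cell Counting Kit-8. Each well received 10 μL of CCK-8 after 72 h of compound exposure, followed by 4 h incubation at 37° C. and a 450 nm plate-reader measurement. Percent viability was calculated relative to DMSO controls across replicates.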

SW480 (colon cancer) = assay: Antiproliferative activity (CCK-8 cell viability), SW480; conditions: Homo sapiens, 72 h; for inhibition at 3.3 µM: Compound concentration: 3.3 μM; for inhibition at 3.3 µM / inhibition at 10 µM: read-out: Antiproliferative activity in cancerous cells, SW480 (inhibition of cell growth); for inhibition at 10 µM: Compound concentration: 10 μM; for inhibition at 30 µM: Compound concentration: 30 μM, read-out: Antiproliferative activity in cancerous cells, SW480
Procedure, shortened: as §1

[4] = system: MDA-MB-231 (breast cancer); assay: Antiproliferative activity (CCK-8 cell viability), MDA-MB-231; conditions: Homo sapiens, 72 h; for inhibition at 3.3 µM: Compound concentration: 3.3 μM; for inhibition at 3.3 µM / inhibition at 10 µM: read-out: Antiproliferative activity in cancerous cells, MDA-MB-231 (inhibition of cell growth); for inhibition at 10 µM: Compound concentration: 10 μM
Procedure, shortened: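 In this CCK-8 viability assay, MDA-MB-231 cells maintained in Dulbecco's modified Eagle's medium containing 10% fetal bovine serum were placed in 96-well plates (2,000-5,000 cells/well) and treated with compound for 72 h at 37° C. A 4 h incubation with 10 μL CCK-8 followed, plates were read at 450 nm, and viability was expressed against DMSO vehicle wells across replicates.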

Row | Structure (SMILES) | inhibition at 3.3 µM [1] | inhibition at 10 µM [1] | inhibition at 3.3 µM [2] | inhibition at 10 µM [2] | inhibition at 3.3 µM (HepG2 (liver cancer)) | inhibition at 10 µM (HepG2 (liver cancer)) | inhibition at 3.3 µM (HeLa (cervical cancer)) | inhibition at 10 µM (HeLa (cervical cancer)) | inhibition at 3.3 µM [3] | inhibition at 10 µM [3] | inhibition at 3.3 µM (SW480 (colon cancer)) | inhibition at 10 µM (SW480 (colon cancer)) | inhibition at 3.3 µM [4] | inhibition at 10 µM [4] | inhibition at 30 µM (SW480 (colon cancer)) | inhibition at 30 µM ([4]; Compound concentration: 30 μM, read-out: Antiproliferative activity in cancerous cells, MDA-MB-231) | inhibition at 30 µM ([1]; Compound concentration: 30 μM, read-out: Antiproliferative activity in cancerous cells, A549)
1 | CC1=C(CC(=O)O)c2cc(F)ccc2/C1=C\c1ccc(Oc2ccc(Cl)nc2)cc1 [C65, (Z)-2-(1-(4-((6-Chloropyridin-3-yl)oxy)benzylidene)-5-fluoro-2-methyl-1H-inden-3-yl)acetic acid] | < 30% | ≥ 50% | 30 to 50% | ≥ 50% | 30 to 50% | ≥ 50% | 30 to 50% | ≥ 50% | ≥ 50% | ≥ 50% | < 30% | < 30% | < 30% | < 30% | – | – | –
2 | CC1=C(CC(=O)O)c2cc(F)ccc2/C1=C\c1ccc(Oc2ccc(Cl)cc2Cl)cc1 [C66, (Z)-2-(1-(4-(2,4-Dichlorophenoxy)benzylidene)-5-fluoro-2-methyl-1H-inden-3-yl)acetic acid] | 30 to 50% | ≥ 50% | < 30% | ≥ 50% | ≥ 50% | ≥ 50% | ≥ 50% | ≥ 50% | ≥ 50% | ≥ 50% | < 30% | < 30% | < 30% | ≥ 50% | – | – | –
3 | CC1=C(CC(=O)O)c2ccc(Cl)cc2/C1=C\c1ccc(Oc2ccc(F)cc2)cc1 [C67, (Z)-2-(6-Chloro-1-(4-(4-fluorophenoxy)benzylidene)-2-methyl-1H-inden-3-yl)acetic acid] | < 30% | ≥ 50% | < 30% | < 30% | 30 to 50% | ≥ 50% | < 30% | < 30% | 30 to 50% | ≥ 50% | 30 to 50% | 30 to 50% | < 30% | ≥ 50% | – | – | –
4 | CC1=C(CC(=O)O)c2cc(F)ccc2/C1=C\c1ccc(Oc2ccc(F)cc2Cl)cc1 [C68, (Z)-2-(1-(4-(2-Chloro-4-fluorophenoxy)benzylidene)-5-fluoro-2-methyl-1H-inden-3-yl)acetic acid] | < 30% | ≥ 50% | < 30% | < 30% | < 30% | ≥ 50% | < 30% | < 30% | 30 to 50% | ≥ 50% | ≥ 50% | ≥ 50% | < 30% | < 30% | – | – | –
5 | COc1ccc(Oc2ccc(/C=C3/C(C)=C(CC(=O)O)c4cc(F)ccc43)cc2)cc1Cl [C70, (Z)-2-(1-(4-(3-Chloro-4-methoxyphenoxy)benzylidene)-5-fluoro-2-methyl-1H-inden-3-yl)acetic acid] | < 30% | 30 to 50% | < 30% | 30 to 50% | < 30% | ≥ 50% | < 30% | ≥ 50% | ≥ 50% | ≥ 50% | < 30% | < 30% | < 30% | < 30% | < 30% | 30 to 50% | –
6 | COc1cc(Oc2ccc(/C=C3/C(C)=C(CC(=O)O)c4cc(F)ccc43)cc2)ccc1Cl [C71, (Z)-2-(1-(4-(4-Chloro-3-methoxyphenoxy)benzylidene)-5-fluoro-2-methyl-1H-inden-3-yl)acetic acid] | < 30% | 30 to 50% | ≥ 50% | ≥ 50% | ≥ 50% | ≥ 50% | 30 to 50% | ≥ 50% | ≥ 50% | ≥ 50% | < 30% | ≥ 50% | < 30% | 30 to 50% | – | – | –
7 | COc1ccc2c(c1)C(CC(=O)O)=C(C)/C2=C/c1ccc(Oc2ccc(Cl)cc2)cc1 [C72, (Z)-2-(1-(4-(4-Chlorophenoxy)benzylidene)-5-methoxy-2-methyl-1H-inden-3-yl)acetic acid] | < 30% | < 30% | ≥ 50% | ≥ 50% | < 30% | < 30% | ≥ 50% | ≥ 50% | 30 to 50% | 30 to 50% | < 30% | < 30% | 30 to 50% | 30 to 50% | < 30% | – | 30 to 50%
8 | COc1ccc2c(c1)C(CC(=O)O)=C(C)/C2=C/c1ccc(Oc2cccc(Cl)c2)cc1 [C73, (Z)-2-(1-(4-(3-Chlorophenoxy)benzylidene)-5-methoxy-2-methyl-1H-inden-3-yl)acetic acid] | < 30% | < 30% | 30 to 50% | ≥ 50% | < 30% | < 30% | 30 to 50% | ≥ 50% | 30 to 50% | ≥ 50% | < 30% | < 30% | < 30% | 30 to 50% | 30 to 50% | – | –
9 | COc1ccc2c(c1)C(CC(=O)O)=C(C)/C2=C/c1ccc(Oc2ccc(Cl)cc2)cc1C [C74, (Z)-2-(1-(4-(4-Chlorophenoxy)-2-methylbenzylidene)-5-methoxy-2-methyl-1H-inden-3-yl)acetic acid] | 30 to 50% | ≥ 50% | ≥ 50% | ≥ 50% | < 30% | ≥ 50% | < 30% | ≥ 50% | ≥ 50% | ≥ 50% | < 30% | 30 to 50% | ≥ 50% | ≥ 50% | – | – | –
10 | COc1ccc2c(c1)C(CC(=O)O)=C(C)/C2=C/c1ccc(Oc2ccc(F)c(F)c2)cc1 [C75, (Z)-2-(1-(4-(3,4-Difluorophenoxy)benzylidene)-5-methoxy-2-methyl-1H-inden-3-yl)acetic acid] | 30 to 50% | ≥ 50% | ≥ 50% | ≥ 50% | < 30% | ≥ 50% | ≥ 50% | ≥ 50% | ≥ 50% | ≥ 50% | < 30% | 30 to 50% | ≥ 50% | ≥ 50% | – | – | –
